Experimental data from US20250018068A1, “4H-IMIDAZO[1,5-B]PYRAZOLE DERIVATIVES FOR DIAGNOSIS” (AC IMMUNE SA, priority 2021, published 2025).
Counter-ions that a name gives are not always drawn. Like-named read-outs stand apart in the source and are kept apart here.

Biological target: T1, PD brain-derived alpha-synuclein aggregates (Homo sapiens, UniProt P37840)
T1 construct: from tissue; host or cells: human PD donor brain, sarkosyl-insoluble pellet
Test: Micro-radiobinding competition assay for the determination of binding affinity
Conditions: for inhibition at 0.1 µM: read-out: Micro-radiobinding competition assay Competition at 100 nM (%); for inhibition at 1 µM: read-out: Micro-radiobinding competition assay Competition at 1 μM (%); for Ki: * = mean of two independent experiments, two donors
Method: The procedure was adapted from the protocol described in Spillantini et al., 1998. Frozen tissue blocks from PD donors were thawed on ice and homogenized using a glass dounce homogenizer. The homogenate was then centrifuged at 11,000×g (12,700 RPM) in an ultracentrifuge (Beckman, XL100K) for 20 minutes at 4° C. using a pre-cooled 70.1 rotor (Beckman, 342184). Pellets were resuspended in extraction buffer [10 mM Tris-HCl pH 7.4, 10% sucrose, […], 1% protease inhibitor (Calbiochem 539131), 1 mM EGTA, 1% phosphatase inhibitor (Sigma P5726 and P0044)] and centrifuged at 15,000×g (14,800 RPM, a 70.1 Ti rotor) for 20 minutes at 4° C. Pellets were discarded and sarkosyl (20% stock solution, Sigma L7414) was added to the supernatants to a final concentration of 1% at room temperature for one hour. This solution was then centrifuged at 100,000×g (38,000 RPM, 70.1 Ti rotor) for one hour at 4° C. Pellets containing enriched alpha-synuclein aggregates were resuspended in PBS and stored at −80° C. until use.
PD brain-derived alpha-synuclein aggregates were spotted onto microarray slides. The slides were incubated with [^3H]-alpha-synuclein reference at 6 nM or 20 nM and the example compounds (non-radiolabelled) at 1 μM and 100 nM. In some cases, the non-radiolabelled example compounds were further assessed for a range of different concentrations, varying from 0.05 nM to 2 μM. After incubation, slides were washed and scanned by a real-time autoradiography system (BeaQuant, ai4R). Quantification of the signal was performed by using the Beamage image analysis software (ai4R). Non-specific signal was determined with an excess of non-radiolabelled Example-1 (2 μM) and specific binding was calculated by subtracting the non-specific signal from the total signal. Competition was calculated as percent, where 0% was defined as the specific binding in the presence of vehicle and 100% as the values obtained in the presence of excess of the non-radiolabelled Example-1. Ki values were calculated in GraphPad Prism7 by applying a nonlinear regression curve fit using a one site, specific binding model. All measurements were performed with at least two technical replicates. For compounds tested in more than one experiment, the mean of the replicates or Ki values in independent experiments is reported.
Results: Example compounds were assessed for their potency to compete with the binding of [^3H]-reference alpha-synuclein ligand to PD patient brain-derived alpha-synuclein aggregates. Results of the micro-radiobinding competition assay for the example compounds tested are shown in Table 3 as: % competition at 1 μM and 100 nM.
Table 3: Assessment of binding affinity by micro-radiobinding competition assay on human PD brain-derived alpha-synuclein aggregates. Percent (%) competition over the tritiated [^3H]-Example-1 ligand in the presence of 1 μM and 100 nM of example compounds 1-9. Ki values are also shown for selected example compounds. *, mean of Ki values in two independent experiments using PD brain-derived homogenates from two different donors.

[1] = 100 nM non-radiolabelled compound, competition over tritiated [3H]-Example-1 ligand, human PD brain-derived alpha-synuclein aggregates
[2] = 1 μM non-radiolabelled compound, competition over tritiated [3H]-Example-1 ligand, human PD brain-derived alpha-synuclein aggregates
[3] = human PD brain-derived alpha-synuclein aggregates

inhibition at 0.1 µM [1] [%]	inhibition at 1 µM [2] [%]	Ki [3] [nM]	Micro-radiobinding competition assay Competition at 100 nM (%) [1] [%]	Micro-radiobinding competition assay Competition at 1 μM (%) [2] [%]	Compound	inhibition at 0.1 µM [%]	inhibition at 1 µM [%]
79	98	–	–	–	O=C1N(c2cncs2)Cc2cc(-c3ccc(N4CCC(F)C4)nc3)nn21 (stereo in doubt) [Example 16, (R)-2-(6-(3-fluoropyrrolidin-1-yl)pyridin-3-yl)-5-(thiazol-5-yl)-4,5-dihydro-6H-imidazo[1,5-b]pyrazol-6-one hydrogen chloride salt]	–	–
87	97	46	–	–	O=C1N(c2cccnc2)Cc2cc(-c3ccc(N4CC[C@@H](F)C4)nc3)nn21 [Example 2, (R)-2-(6-(3-fluoropyrrolidin-1-yl)pyridin-3-yl)-5-(pyridin-3-yl)-4H-imidazo[1,5-b]pyrazol-6(5H)-one hydrochloride]	–	–
74	89	–	–	–	O=C1N(c2ccccn2)Cc2cc(-c3ccc(N4CC[C@@H](F)C4)nc3)nn21 [Example 3, (R)-2-(6-(3-fluoropyrrolidin-1-yl)pyridin-3-yl)-5-(pyridin-2-yl)-4H-imidazo[1,5-b]pyrazol-6(5H)-one]	–	–
94	100	–	–	–	O=C1N(c2ccccn2)Cc2cc(-c3ccc(N4CC[C@H](F)C4)nc3)nn21 [Example 4, (S)-2-(6-(3-fluoropyrrolidin-1-yl)pyridin-3-yl)-5-(pyridin-2-yl)-4H-imidazo[1,5-b]pyrazol-6(5H)-one hydrochloride]	–	–
59	89	26	–	–	O=C1N(c2ccncc2)Cc2cc(-c3ccc(N4CC[C@H](F)C4)nc3)nn21 [Example 5, (S)-2-(6-(3-fluoropyrrolidin-1-yl)pyridin-3-yl)-5-(pyridin-4-yl)-4H-imidazo[1,5-b]pyrazol-6(5H)-one hydrochloride]	–	–
–	–	–	–	–	Cn1cc(N2Cc3cc(-c4ccc(N5CC[C@H](F)C5)nc4)nn3C2=O)cn1 [Example 6, (S)-2-(6-(3-fluoropyrrolidin-1-yl)pyridin-3-yl)-5-(1-methyl-1H-pyrazol-4-yl)-4H-imidazo[1,5-b]pyrazol-6(5H)-one]	43	93
73	96	–	–	–	Cn1ccc(N2Cc3cc(-c4ccc(N5CC[C@H](F)C5)nc4)nn3C2=O)n1 [Example 7, (S)-2-(6-(3-fluoropyrrolidin-1-yl)pyridin-3-yl)-5-(1-methyl-1H-pyrazol-3-yl)-4H-imidazo[1,5-b]pyrazol-6(5H)-one hydrochloride]	–	–
–	–	–	–	–	O=C1N(c2cccnc2)Cc2cc(-c3ccc(Br)nc3)nn21 [Example 9, 2-(6-bromopyridin-3-yl)-5-(pyridin-3-yl)-4H-imidazo[1,5-b]pyrazol-6(5H)-one]	45	62
72	100	–	–	–	O=C1N(c2cccnc2)Cc2cc(-c3cnc(N4CC[C@@H](F)C4)cn3)nn21 [Example 10, (R)-2-(5-(3-fluoropyrrolidin-1-yl)pyrazin-2-yl)-5-(pyridin-3-yl)-4,5-dihydro-6H-imidazo[1,5-b]pyrazol-6-one]	–	–
25	76	252	–	–	O=C1N(c2cccnc2)Cc2cc(-c3cnc(N4CC[C@H](F)C4)cn3)nn21 [Example 11, (S)-2-(5-(3-fluoropyrrolidin-1-yl)pyrazin-2-yl)-5-(pyridin-3-yl)-4,5-dihydro-6H-imidazo[1,5-b]pyrazol-6-one hydrogen chloride salt]	–	–
76	90	34	–	–	O=C1N(c2cccnc2)Cc2cc(-c3cnc(N4CC[C@@H](F)C4)c(F)c3)nn21 [Example 12, (R)-2-(5-fluoro-6-(3-fluoropyrrolidin-1-yl)pyridin-3-yl)-5-(pyridin-3-yl)-4,5-dihydro-6H-imidazo[1,5-b]pyrazol-6-one hydrogen chloride salt]	–	–
55	71	101	–	–	O=C1N(c2cccnc2)Cc2cc(-c3cnc(N4CC[C@H](F)C4)c(F)c3)nn21 [Example 13, (S)-2-(5-fluoro-6-(3-fluoropyrrolidin-1-yl)pyridin-3-yl)-5-(pyridin-3-yl)-4,5-dihydro-6H-imidazo[1,5-b]pyrazol-6-one hydrogen chloride salt]	–	–
56	85	80	–	–	Cc1nc(N2CC[C@@H](F)C2)ccc1-c1cc2n(n1)C(=O)N(c1cccnc1)C2 [Example 14, (R)-2-(6-(3-fluoropyrrolidin-1-yl)-2-methylpyridin-3-yl)-5-(pyridin-3-yl)-4,5-dihydro-6H-imidazo[1,5-b]pyrazol-6-one hydrogen chloride salt]	–	–
48	80	141	–	–	Cc1nc(N2CC[C@H](F)C2)ccc1-c1cc2n(n1)C(=O)N(c1cccnc1)C2 [Example 15, (S)-2-(6-(3-fluoropyrrolidin-1-yl)-2-methylpyridin-3-yl)-5-(pyridin-3-yl)-4,5-dihydro-6H-imidazo[1,5-b]pyrazol-6-onehydrogen chloride salt]	–	–
–	–	–	66	95	O=C1N(c2cncs2)Cc2cc(-c3ccc(N4CC[C@H](F)C4)nc3)nn21 [Example 17, (S)-2-(6-(3-fluoropyrrolidin-1-yl)pyridin-3-yl)-5-(thiazol-5-yl)-4,5-dihydro-6H-imidazo[1,5-b]pyrazol-6-one hydrogen chloride salt]	–	–
51	83	51	–	–	Cc1ncc(N2Cc3cc(-c4ccc(N5CC[C@@H](F)C5)nc4)nn3C2=O)s1 [Example 18, (R)-2-(6-(3-fluoropyrrolidin-1-yl)pyridin-3-yl)-5-(2-methylthiazol-5-yl)-4,5-dihydro-6H-imidazo[1,5-b]pyrazol-6-one hydrogen chloride salt]	–	–
41	78	65	–	–	Cc1ncc(N2Cc3cc(-c4ccc(N5CC[C@H](F)C5)nc4)nn3C2=O)s1 [Example 19, (S)-2-(6-(3-fluoropyrrolidin-1-yl)pyridin-3-yl)-5-(2-methylthiazol-5-yl)-4,5-dihydro-6H-imidazo[1,5-b]pyrazol-6-one hydrogen chloride salt]	–	–
85	87	–	–	–	O=C1N(c2ccns2)Cc2cc(-c3ccc(N4CC[C@@H](F)C4)nc3)nn21 [Example 20, (R)-2-(6-(3-fluoropyrrolidin-1-yl)pyridin-3-yl)-5-(isothiazol-5-yl)-4,5-dihydro-6H-imidazo[1,5-b]pyrazol-6-one hydrogen chloride salt]	–	–
82	90	–	–	–	O=C1N(c2ccns2)Cc2cc(-c3ccc(N4CC[C@H](F)C4)nc3)nn21 [Example 21, (S)-2-(6-(3-fluoropyrrolidin-1-yl)pyridin-3-yl)-5-(isothiazol-5-yl)-4,5-dihydro-6H-imidazo[1,5-b]pyrazol-6-one hydrogen chloride salt]	–	–

Compound	inhibition at 0.1 µM [1] [%]	inhibition at 1 µM [2] [%]	Ki [3] [nM]	Micro-radiobinding competition assay Competition at 100 nM (%) [1] [%]	Micro-radiobinding competition assay Competition at 1 μM (%) [2] [%]	inhibition at 0.1 µM [%]	inhibition at 1 µM [%]
O=C1N(c2cnn(CCF)c2)Cc2cc(-c3ccc(N4CCCC4)nc3)nn21 [Example 8, 5-(1-(2-fluoroethyl)-1H-pyrazol-4-yl)-2-(6-(pyrrolidin-1-yl)pyridin-3-yl)-4H-imidazo[1,5-b]pyrazol-6(5H)-one]	–	–	64	–	–	27	73
